# Reference: ChEMBL document CHEMBL5046288, “Design, Synthesis, and Bioevaluation of 2-Aminopteridin-7(8H)-one Derivatives as Novel Potent Adenosine A2A Receptor Antagonists for Cancer Immunotherapy” (J Med Chem, 2022)
# Calls of active or inactive are those of the source. The calls are words filed in the database; no cut-off is given here.
# Legend:
# Adenosine receptor A2a [1] = molecular target: T1, Adenosine receptor A2a (Homo sapiens, UniProt P29274); assay: Antagonist activity at human A2aR expressed in HEK293 cells assessed as reduction in cAMP production incubated for 60 mins by ultra LANCE cAMP detection assay; format: functional, cell-based
# T1 sequence (P29274 whole entry): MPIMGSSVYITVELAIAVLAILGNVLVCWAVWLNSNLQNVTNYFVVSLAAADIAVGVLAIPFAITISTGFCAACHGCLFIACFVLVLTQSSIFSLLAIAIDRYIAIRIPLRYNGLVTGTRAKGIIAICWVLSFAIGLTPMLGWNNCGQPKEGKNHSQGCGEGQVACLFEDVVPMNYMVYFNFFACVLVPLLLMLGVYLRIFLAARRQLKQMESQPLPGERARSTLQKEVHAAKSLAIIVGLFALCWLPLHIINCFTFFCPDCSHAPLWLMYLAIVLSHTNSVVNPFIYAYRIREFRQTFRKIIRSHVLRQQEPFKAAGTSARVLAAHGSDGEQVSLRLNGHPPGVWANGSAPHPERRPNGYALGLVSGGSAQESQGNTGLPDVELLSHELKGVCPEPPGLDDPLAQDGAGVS
# [2] = Metabolic stability in mouse liver microsomes assessed as half life at […] measured up to 60 mins in presence of NADPH by HPLC-MS/MS analysis; format: ADME, Microsome
# Adenosine receptor A2a [3] = molecular target: T1, Adenosine receptor A2a; assay: Antagonist activity at human A2aR expressed in HEK293 cells assessed as reduction in NECA-induced cAMP production incubated for 20 mins in presence of 40 nM NECA by ultra LANCE cAMP detection assay; format: functional, cell-based
# Jurkat = assay: Upregulation of NECA-suppressed IL-2 mRNA level in Ion/PMA-activated human Jurkat T cells at 10 uM by Q-PCR analysis; format: functional, cell-based
# Adenosine receptor A2a [4] = molecular target: T1, Adenosine receptor A2a; assay: Antagonist activity at human A2aR expressed in HEK293 cells assessed as reduction in NECA-induced cAMP production incubated for 20 mins in presence of 20 nM NECA by GloSensor cAMP detection assay; format: functional, cell-based
# Adenosine receptor A2a [5] = molecular target: T1, Adenosine receptor A2a; assay: Antagonist activity at human A2aR expressed in HEK293 cells assessed as reduction in NECA-induced cAMP production incubated for 20 mins in presence of 1 uM NECA by ultra LANCE cAMP detection assay; format: functional, cell-based
# MC-38 = assay: Cytotoxicity against mouse MC38 cells assessed as reduction in cell viability incubated for 24 hrs by MTS assay; format: toxicity, cell-based; conditions: mc-38, 24 h
# Homo sapiens [6] = species on record: Homo sapiens; assay: Selectivity ratio of IC50 for human A1R to IC50 for human A2aR
# HCT-116 [7] = assay: Cytotoxicity against human HCT-116 cells co-cultured with Ion/PMA-activated human Jurkat T cells assessed as reversal of NECA-induced suppression of cytotoxic function of Jurkat T cell by measuring survival rate at E:T ratio of 6:1 at 10 uM measured after 48 hrs by crystal violet staining based colony assay; format: functional
# [8] = Upregulation of NECA-suppressed IL-2 protein level in Ion/PMA-activated human Jurkat T cells at 10 uM by Western blotting analysis; format: functional
# HCT-116 [9] = assay: Cytotoxicity against human HCT116 cells assessed as reduction in cell viability incubated for 24 hrs by MTS assay; format: toxicity, cell-based; conditions: hct-116, 24 h
# Homo sapiens [10] = species on record: Homo sapiens; assay: Selectivity ratio of IC50 for human A2BR to IC50 for human A2aR
# Homo sapiens [11] = species on record: Homo sapiens; assay: Selectivity ratio of IC50 for human A3R to IC50 for human A2aR
Compound,IC50 (Adenosine receptor A2a [1]),other results
COCCOc1ccc(N2CCN(CCn3c(=O)cnc4c(-c5ccc(C)o5)nc(N)nc43)CC2)cc1,23.8 nM,–
COc1ccc(N(C)C2CN(CCn3c(=O)cnc4c(-c5ccc(C)o5)nc(N)nc43)C2)cc1,> 10000 nM,–
COc1ccc(N2C[C@@H]3C[C@H]2CN3CCn2c(=O)cnc3c(-c4ccc(C)o4)nc(N)nc32)cc1,> 10000 nM,–
Cc1ccc(-c2nc(N)nc3c2n(C)c(=O)n3Cc2ccccc2)o1,2830 nM,–
Cc1ccc(-c2nc(N)nc3c2ncc(=O)n3CCN2CCC(c3ccccc3)CC2)o1,388 nM,–
Cc1ccc(-c2nc(N)nc3c2ncc(=O)n3CCN2CCN(c3ccc(Oc4ccccc4)cc3)CC2)o1,605 nM,–
Cc1ccc(-c2nc(N)nc3c2[nH]c(=O)n3Cc2ccccc2)o1,1030 nM,–
Cc1ccc(-c2nc(N)nc3c2ncc(=O)n3Cc2ccccc2)o1,482 nM,–
COc1ccc(N2CCN(CCn3c(=O)cnc4c(-c5ccc(C)o5)nc(N)nc43)C[C@H]2C)cc1,37.5 nM,–
Cc1ccc(-c2nc(N)nc3c2NC(=O)CN3Cc2ccccc2)o1,> 10000 nM,–
COc1ccc(Cn2c(=O)cnc3c(-c4ccc(C)o4)nc(N)nc32)cc1,> 10000 nM,–
COc1ccc(N2CCN(CCn3c(=O)cnc4c(-c5ccc(C)o5)nc(N)nc43)C[C@@H]2C)cc1,224 nM,–
COc1ccc(N2CCCN(CCn3c(=O)cnc4c(-c5ccc(C)o5)nc(N)nc43)CC2)cc1,716 nM,–
Cc1ccc(-c2nc(N)nc3c2CCN(Cc2ccccc2)C3)o1,> 10000 nM,–
COc1ccc(N2C[C@H](C)N(CCn3c(=O)cnc4c(-c5ccc(C)o5)nc(N)nc43)C[C@H]2C)cc1,2020 nM,–
Cc1ccc(-c2nc(N)nc3c2ncc(=O)n3CCCc2ccccc2)o1,712 nM,–
Cc1ccc(-c2nc(N)nc3c2ncc(=O)n3CCCCc2ccccc2)o1,980 nM,–
Cc1ccc(-c2nc(N)nc3c2ncc(=O)n3Cc2ccco2)o1,2170 nM,–
Cc1ccc(-c2nc(N)nc3c2ncc(=O)n3CC2CCCCC2)o1,1880 nM,–
COc1ccc(N(C)C2CCN(CCn3c(=O)cnc4c(-c5ccc(C)o5)nc(N)nc43)C2)cc1 (centres undefined),> 10000 nM,–
Cc1ccc(-c2nc(N)nc3c2ncc(=O)n3Cc2cccc(C(F)(F)F)c2)o1,> 10000 nM,–
Cc1ccc(-c2nc(N)nc3c2ncc(=O)n3CC2CCN(c3ccccc3)CC2)o1,> 10000 nM,–
COc1ccc(N2CCN(CCn3c(=O)cnc4c(-c5ccc(C)o5)nc(N)nc43)[C@@H](C)C2)c(F)c1,8.3 nM,IC50 (Adenosine receptor A2a [3]): 8.3 nM; Activity (Jurkat): inactive; IC50 (Adenosine receptor A2a [4]): 6.6 nM; half-life [2]: 38.5 min; IC50 (Adenosine receptor A2a [5]): 180 nM; Activity (MC-38): Non-Toxic; Ratio IC50 (Homo sapiens [6]): > 1000; Activity (HCT-116 [7]): 48.6%; fold change (FC) [8]: 3.77; Activity (HCT-116 [9]): Non-Toxic; Ratio IC50 (Homo sapiens [10]): > 1000; Ratio IC50 (Homo sapiens [11]): > 1000
COc1cccc(Cn2c(=O)cnc3c(-c4ccc(C)o4)nc(N)nc32)c1,476 nM,–
Cc1ccc(-c2nc(N)nc3c2ncc(=O)n3CC2CC2)o1,1010 nM,–
COc1ccc(N2CCC(N(C)CCn3c(=O)cnc4c(-c5ccc(C)o5)nc(N)nc43)C2)cc1 (centres undefined),> 10000 nM,–
Cc1ccc(-c2nc(N)nc3c2ncc(=O)n3CCN2CCN(C3CCCC3)CC2)o1,> 10000 nM,–
COc1ccc(N2CC3CCC(C2)N3CCn2c(=O)cnc3c(-c4ccc(C)o4)nc(N)nc32)cc1,555 nM,–

# Continued, in another order:
IC50 (Adenosine receptor A2a [1]),Compound,other results
8.5 nM,Cc1ccc(-c2nc(N)nc3c2ncc(=O)n3CCN2CCN(c3ccc(F)cc3F)CC2)o1,–
29.5 nM,COc1ccc(N2CCN(CCn3c(=O)cnc4c(-c5ccc(C)o5)nc(N)nc43)CC2)cn1,–
3810 nM,COc1ccccc1N1CCN(CCn2c(=O)cnc3c(-c4ccc(C)o4)nc(N)nc32)CC1,–
9.3 nM,COCCOc1ccc(N2CCN(CCn3c(=O)cnc4c(-c5ccc(C)o5)nc(N)nc43)CC2)c(F)c1F,–
4.9 nM,COc1ccc(N2CCN(CCn3c(=O)cnc4c(-c5ccc(C)o5)nc(N)nc43)CC2)c(F)c1,half-life [2]: 5.1 min
> 10000 nM,Cc1ccc(-c2nc(N)nc3c2ncc(=O)n3CCN2CCN(c3cccc(OC(F)(F)F)c3)CC2)o1,–
21 nM,Cc1ccc(-c2nc(N)nc3c2ncc(=O)n3CCN2CCN(c3ccc(OC(F)F)cc3F)CC2)o1,–
> 10000 nM,Cc1ccc(-c2nc(N)nc3c2ncc(=O)n3CCN2CCN(C)CC2)o1,–
176 nM,Cc1ccc(-c2nc(N)nc3c2ncc(=O)n3CCN2CCN(c3ccc(C(F)(F)F)cc3)CC2)o1,–
86.5 nM,Cc1ccc(-c2nc(N)nc3c2ncc(=O)n3CCN2CCN(c3ccc(F)cc3Cl)CC2)o1,–
58.8 nM,Cc1ccc(-c2nc(N)nc3c2ncc(=O)n3CCN2CCN(c3ccc(F)cc3)CC2)o1,–
63.7 nM,Cc1ccc(-c2nc(N)nc3c2ncc(=O)n3CCN2CCN(c3ccc(OC(F)F)cc3)CC2)o1,–
120 nM,Cc1ccc(-c2nc(N)nc3c2ncc(=O)n3CCN2CCN(c3ccc(OC(F)(F)F)cc3)CC2)o1,–
11.7 nM,Cc1ccc(-c2nc(N)nc3c2ncc(=O)n3CCN2CCN(c3ccccc3F)CC2)o1,–
57.5 nM,Cc1ccc(-c2nc(N)nc3c2ncc(=O)n3CCN2CCN(c3cccc(F)c3)CC2)o1,–
5.5 nM,COc1cnc(N2CCN(CCn3c(=O)cnc4c(-c5ccc(C)o5)nc(N)nc43)CC2)c(F)c1,–
213 nM,COc1ccc(N2CCN(CCn3c(=O)cnc4c(-c5ccc(C)o5)nc(N)nc43)CC2)nc1,–
> 10000 nM,Cc1ccc(-c2nc(N)nc3c2ncc(=O)n3CCN2CCN(c3ccccc3OC(F)(F)F)CC2)o1,–
